Counter-ions that a name gives are not always drawn. Some results are limits rather than exact numbers.

From patent US9493396B2, “Substituted naphthalene compounds as calcium sensing receptor modulators” (LUPIN ATLANTIS HOLDINGS SA, priority 2013, dated 2016) come the findings set out here.

This assay deals with T1, Calcium sensing receptor (hCaSR) (Homo sapiens, UniProt P41180).
T1 construct: expressed in transfected cells; host or cells: HEK293 (stably transfected)
T1 sequence (P41180 20-1078): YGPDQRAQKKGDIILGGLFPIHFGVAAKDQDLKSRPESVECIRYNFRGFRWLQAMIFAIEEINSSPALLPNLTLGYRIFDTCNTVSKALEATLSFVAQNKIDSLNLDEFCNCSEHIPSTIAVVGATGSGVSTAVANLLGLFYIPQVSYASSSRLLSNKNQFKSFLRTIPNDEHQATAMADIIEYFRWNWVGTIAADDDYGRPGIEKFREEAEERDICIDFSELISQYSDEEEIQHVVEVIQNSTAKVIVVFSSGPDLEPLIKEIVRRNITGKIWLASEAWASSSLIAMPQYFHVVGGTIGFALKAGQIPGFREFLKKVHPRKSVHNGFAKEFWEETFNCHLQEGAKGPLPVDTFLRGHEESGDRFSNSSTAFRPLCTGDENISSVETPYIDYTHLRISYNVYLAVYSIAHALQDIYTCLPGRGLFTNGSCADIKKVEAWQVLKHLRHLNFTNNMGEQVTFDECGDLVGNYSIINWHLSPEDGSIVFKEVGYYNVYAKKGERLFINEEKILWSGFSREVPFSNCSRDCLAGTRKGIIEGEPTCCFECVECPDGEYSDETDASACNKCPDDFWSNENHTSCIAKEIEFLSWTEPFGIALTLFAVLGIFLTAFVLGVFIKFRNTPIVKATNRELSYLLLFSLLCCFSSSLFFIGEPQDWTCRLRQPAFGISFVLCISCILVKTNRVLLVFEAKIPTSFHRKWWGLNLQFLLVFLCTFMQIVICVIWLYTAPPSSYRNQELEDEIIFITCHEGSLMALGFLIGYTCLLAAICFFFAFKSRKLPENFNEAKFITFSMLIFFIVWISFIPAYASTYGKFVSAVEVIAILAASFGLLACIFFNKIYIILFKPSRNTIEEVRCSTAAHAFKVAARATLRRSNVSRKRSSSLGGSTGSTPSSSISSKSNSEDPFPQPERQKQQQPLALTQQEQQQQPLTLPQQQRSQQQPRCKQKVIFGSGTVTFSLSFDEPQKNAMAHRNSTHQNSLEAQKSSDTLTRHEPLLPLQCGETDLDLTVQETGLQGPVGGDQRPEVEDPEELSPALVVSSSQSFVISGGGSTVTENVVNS
The assay can be described thus: In-vitro assay of calcimimetics through modulation of calcium sensing receptor (intracellular calcium increase, FLIPR). It counts as cell-based. Conditions: stably transfected HEK293 cells expressing hCaSR; Fluo4NW dye; 0.3 mM CaCl2; 8-point assay; read-out: EC50 in range. The procedure:
In-Vitro Assay Method of Calcimimetics Through Modulation of Calcium Sensing Receptor (CaSR): The ability of the compounds to modulate Calcium sensing receptor is determined by measuring an increase in intracellular calcium [Ca^2+]i. Stably transfected HEK293 cells expressing hCaSR_pTriEx-3 hygro vector are developed. Cells are grown overnight on a 96-well plate to 80% confluency in Ham's F12 containing 20% FBS at 37° C., 5% CO2. Subsequently, cells are washed extensively with 20 mM HEPES buffer containing 126 mM […], 1 mM MgCl2 and 4 mM KCl to remove serum components that might interfere with the assay. Cells are loaded with calcium sensing Fluo4NW dye in HEPES base buffer containing 0.1% BSA and 1 mg/ml glucose for 30 minutes to measure changes in intracellular calcium. The activities of the compounds are measured in FLIPR using 0.3 mM CaCl2 in 20 mM HEPES base buffer. The effectiveness of the compound to modulate receptor activity is determined by calculating the EC50 responses for that compound in an 8-point assay and plotted using GraphPad Prism 5.
In the case of `C[C@@H](NCc1cc(-c2cccc(C(F)(F)F)c2)c2ccccc2c1)c1cccc2ccccc12` [Example 3, (R)-1-(Naphthalen-1-yl)-N-((4-(3-(trifluoromethyl)phenyl)naphthalen-2-yl)methyl)ethanamine hydrochloride], the EC50 – broadly, the midpoint of the concentration-response curve – is less than 20 nM.

In the case of `COc1cc([C@@H](C)NCc2cc(-c3cccc(C(F)(F)F)c3)c3ccccc3c2)ccc1F` [Example 4, (R)-1-(4-Fluoro-3-methoxyphenyl)-N-((4-(3-(trifluoromethyl)phenyl)naphthalen-2-yl)methyl)ethanamine hydrochloride], the EC50 was 20 to 50 nM.

As to `COc1cccc([C@@H](C)NCCCc2cc(-c3ccc(C(F)(F)F)cc3)c3ccccc3c2)c1` [Example 5, (R)-N-(1-(3-Methoxyphenyl)ethyl)-3-(4-(4-(trifluoromethyl)phenyl)naphthalen-2-yl)propan-1-amine hydrochloride], the EC50 was in the range of 20 to 50 nM.

Take `COc1cccc([C@@H](C)NC(C)c2cc(-c3ccc(C(F)(F)F)cc3)c3ccccc3c2)c1` (stereo partly drawn) [Example 6, (R)-1-(3-Methoxyphenyl)-N-(1-(4-(4-(trifluoromethyl)phenyl)naphthalen-2-yl)ethyl)ethanamine hydrochloride]: the EC50 is less than 20 nM.

Turning to `COc1cccc([C@@H](C)NC(C)c2cc(-c3ccc(OC)c(F)c3)c3ccccc3c2)c1` (stereo partly drawn) [Example 7, 1-(4-(3-Fluoro-4-methoxyphenyl)naphthalen-2-yl)-N-((R)-1-(3-methoxyphenyl)ethyl)ethanamine hydrochloride], the EC50 was less than 20 nM.

Consider `COc1ccc(-c2cc(C(C)N[C@H](C)c3cccc(Cl)c3)cc3ccccc23)cc1F` (stereo partly drawn) [Example 8, (1R)-1-(3-Chlorophenyl)-N-(1-(4-(3-fluoro-4-methoxyphenyl)naphthalen-2-yl)ethyl)ethanamine hydrochloride], for which the EC50 was less than 20 nM.

For `CC(N[C@H](C)c1cccc(Cl)c1)c1cc(-c2ccc(C(F)(F)F)cc2)c2ccccc2c1` (stereo partly drawn) [Example 10, (1R)-1-(3-Chlorophenyl)-N-(1-(4-(4-(trifluoromethyl)phenyl)naphthalen-2-yl)ethyl)ethanamine hydrochloride], the EC50 was less than 20 nM.

As to `CCOc1cccc([C@@H](C)NC(C)c2cc(-c3ccc(C(F)(F)F)cc3)c3ccccc3c2)c1` (stereo partly drawn) [Example 12, (1R)-1-(3-Ethoxyphenyl)-N-(1-(4-(4-(trifluoromethyl)phenyl)naphthalen-2-yl)ethyl)ethanamine hydrochloride], the EC50 is less than 20 nM.

As to `CC(N[C@H](C)c1cccc(F)c1)c1cc(-c2ccc(C(F)(F)F)cc2)c2ccccc2c1` (stereo partly drawn) [Example 13, (1R)-1-(3-Fluorophenyl)-N-(1-(4-(4-(trifluoromethyl)phenyl)naphthalen-2-yl)ethyl)ethanamine hydrochloride], the EC50 was less than 20 nM.

On to `CC(N[C@H](C)c1cccc(Cl)c1)c1cc(-c2cccc(C(F)(F)F)c2)c2ccccc2c1` (stereo partly drawn) [Example 14, (1R)-1-(3-Chlorophenyl)-N-(1-(4-(3-(trifluoromethyl)phenyl)naphthalen-2-yl)ethyl)ethanamine hydrochloride], for which the EC50 was less than 20 nM.

On to `CC(N[C@H](C)c1cccc(Cl)c1)c1cc(-c2ccc(F)cc2)c2ccccc2c1` (stereo partly drawn) [Example 16, (1R)-1-(3-Chlorophenyl)-N-(1-(4-(4-fluorophenyl)naphthalen-2-yl)ethyl)ethanamine hydrochloride], for which the EC50 is less than 20 nM.

Take `COc1cccc([C@@H](C)NC(C)c2cc(-c3ccc(S(C)(=O)=O)cc3)c3ccccc3c2)c1` (stereo partly drawn) [Example 17, (1R)-1-(3-Methoxyphenyl)-N-(1-(4-(4-(methylsulfonyl)phenyl)naphthalen-2-yl)ethyl)ethanamine hydrochloride]: the EC50 fell in the range of 50 to 400 nM.

Turning to `COc1cccc([C@@H](C)NC(C)c2cc(-c3ccc(OC(F)(F)F)cc3)c3ccccc3c2)c1` (stereo partly drawn) [Example 19, (1R)-1-(3-Methoxyphenyl)-N-(1-(4-(4-(trifluoromethoxy)phenyl)naphthalen-2-yl)ethyl)ethanamine hydrochloride], the EC50 was less than 20 nM.

`CC(N[C@H](C)c1cccc(Cl)c1)c1cc(-c2ccc(OC(F)(F)F)cc2)c2ccccc2c1` (stereo partly drawn) [Example 20, (1R)-1-(3-Chlorophenyl)-N-(1-(4-(4-(trifluoromethoxy)phenyl)naphthalen-2-yl)ethyl)ethanamine hydrochloride]: the EC50 is less than 20 nM.

With `COc1cccc([C@@H](C)NC(C)c2cc(-c3ccc(OC(F)F)cc3)c3ccccc3c2)c1` (stereo partly drawn) [Example 21, 1-(4-(4-(Difluoromethoxy)phenyl)naphthalen-2-yl)-N-((R)-1-(3-methoxyphenyl)ethyl)ethanamine hydrochloride], the EC50 is less than 20 nM.

`CC(N[C@H](C)c1cccc(Cl)c1)c1cc(-c2ccc(OC(F)F)cc2)c2ccccc2c1` (stereo partly drawn) [Example 22, (1R)-1-(3-Chlorophenyl)-N-1-(4-(4-(difluoromethoxy)phenyl)naphthalen-2-yl)ethyl)ethanamine hydrochloride]: the EC50 was less than 20 nM.

For the compound `COC(=O)c1cc(-c2cc(CN[C@H](C)c3cccc(OC)c3)cc3ccccc23)ccc1F` [Example 45, (R)-methyl 2-fluoro-5-(3-(((1-(3-methoxyphenyl)ethyl)amino)methyl)naphthalen-1-yl)benzoate hydrochloride], the concentration giving a half-maximal response (EC50) was less than 20 nM.

With `Cc1ccc(-c2cc(CN[C@H](C)c3cccc4ccccc34)cc3ccccc23)cc1C(=O)O` [Example 89, (R)-2-Methyl-5-(3-(((1-(naphthalen-1-yl)ethyl)amino)methyl)naphthalen-1-yl) benzoic acid], the EC50 lay within 20 to 50 nM.

For the compound `COc1cccc([C@@H](C)NCc2cc(-c3ccc(C)c(C(=O)O)c3)c3ccccc3c2)c1` [Example 90, (R)-5-(3-(((1-(3-Methoxyphenyl)ethyl)amino)methyl)naphthalen-1-yl)-2-methylbenzoic acid hydrochloride], the EC50 is less than 20 nM.

Consider `CCOc1cccc([C@@H](C)NCc2cc(-c3ccc(C)c(C(=O)O)c3)c3ccccc3c2)c1` [Example 91, hydrochloride], for which the EC50 was less than 20 nM.

Take `CCCOc1cccc([C@@H](C)NCc2cc(-c3ccc(C)c(C(=O)O)c3)c3ccccc3c2)c1` [Example 92, (R)-2-Methyl-5-(3-(((1-(3-propoxyphenyl)ethyl)amino)methyl)naphthalen-1-yl)benzoic acid hydrochloride]: the EC50 is 50 to 400 nM.

On to `COc1cc([C@@H](C)NCc2cc(-c3ccc(C)c(C(=O)O)c3)c3ccccc3c2)ccc1F` [Example 93, (R)-5-(3-(((1-(4-Fluoro-3-methoxyphenyl)ethyl)amino)methyl)naphthalen-1-yl)-2-methylbenzoic acid hydrochloride], for which the EC50 was in the range of 50 to 400 nM.

Take `Cc1ccc(-c2cc(CN[C@H](C)c3cccc(Cl)c3)cc3ccccc23)cc1C(=O)O` [Example 94, (R)-5-(3-(((1-(3-Chlorophenyl)ethyl)amino)methyl)naphthalen-1-yl)-2-methylbenzoic acid hydrochloride]: the EC50 lay in the range of 50 to 400 nM.

For `Cc1ccc(-c2cc(CN[C@H](C)c3cccc(OCC(F)F)c3)cc3ccccc23)cc1C(=O)O` [Example 95, (R)-5-(3-(((1-(3-(2,2-Difluoroethoxy)phenyl)ethyl)amino)methyl)naphthalen-1-yl)-2-methylbenzoic acid hydrochloride], the EC50 lay in the range of 50 to 400 nM.
